The results in this text go back to US10087166B2, “Cyclic amine azaheterocyclic carboxamides” (Merck Patent GmbH, priority 2010, dated 2018).

For this assay, the target named is T1, P70S6K (Homo sapiens, UniProt P23443, T412E).
T1 construct: purchased Millipore
T1 sequence (P23443 whole entry T412E): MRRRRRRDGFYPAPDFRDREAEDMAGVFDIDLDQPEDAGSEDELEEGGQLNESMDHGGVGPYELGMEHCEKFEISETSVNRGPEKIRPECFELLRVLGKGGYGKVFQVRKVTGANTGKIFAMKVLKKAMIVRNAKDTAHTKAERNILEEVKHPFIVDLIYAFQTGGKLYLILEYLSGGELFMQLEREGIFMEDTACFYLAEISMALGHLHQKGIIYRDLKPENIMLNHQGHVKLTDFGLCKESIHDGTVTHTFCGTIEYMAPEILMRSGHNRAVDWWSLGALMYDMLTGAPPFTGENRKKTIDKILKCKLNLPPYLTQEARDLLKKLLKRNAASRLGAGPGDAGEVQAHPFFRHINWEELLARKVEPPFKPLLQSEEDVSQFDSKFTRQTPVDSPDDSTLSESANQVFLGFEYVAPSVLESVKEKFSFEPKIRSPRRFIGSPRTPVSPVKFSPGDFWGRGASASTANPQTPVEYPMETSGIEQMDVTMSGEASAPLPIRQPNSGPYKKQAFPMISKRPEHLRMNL
Briefly: P70S6K enzyme assay. It counts as biochemical. The following applies: P70S6K T412E mutant 3 nM, 24 μM ATP, FITC-AHA-AKRRRLSSLRA-OH substrate, 90 min at 25° C.; read-out: IC50p70S6K. Here is the method:
P70S6K inhibitor compounds are diluted and plated in 96 well plates. A reaction mixture including the following components is then added to the compound plate to initiate the enzyme reaction; P70S6K (3 nM, T412E mutant, Millipore) is mixed with 24 μM ATP in an assay buffer containing 100 mM Hepes (pH 7.5), 5 mM MgCl2, 1 mM DTT, 0.015% Brij and 1 μM of the substrate peptide FITC-AHA-AKRRRLSSLRA-OH (derived from the S6 ribosomal protein sequence, FITC=fluorescein isothiocyanate, AHA=6-aminohexanoic acid). The reaction is incubated for 90 min at 25° C., before the addition of 10 mM EDTA to stop the reaction. The proportion of substrate and product (phosphorylated) peptide is analyzed on a Caliper Life Sciences Lab Chip 3000, using a pressure of −1.4 psi, and upstream and downstream voltages of −3000 and −700 respectively. Product peaks are resolved before substrate peaks on the resulting chromatograms.
To assess the inhibitory potential of the compounds, IC50-values were determined, as shown in Chemical Synthesis section above.
Regarding `NC(=O)c1cccc2c(N[C@H]3CNC[C@@H]3c3cccc(F)c3)ncnc12` (racemic) [compound 2, 4-((4-(3-fluorophenyl)pyrrolidin-3-yl)amino)quinazoline-8-carboxamide], the IC50 came out at 3 nM.
`NC(=O)c1cccc2c(N[C@H]3CNC[C@@H]3c3ccccc3)ncnc12` (racemic) [compound 3, 4-((4-phenylpyrrolidin-3-yl)amino)quinazoline-8-carboxamide]: the IC50 is 4.9 nM.
With `NC(=O)c1cccc2c(NC3CNCC3c3cccc(Cl)c3)ncnc12` (racemic) [compound 9, 4-((4-(3-chlorophenyl)pyrrolidin-3-yl)amino)quinazoline-8-carboxamide], the IC50 is 1.3 nM.
For the molecule `NC(=O)c1cccc2c(NC3CNCC3c3c(F)cccc3Cl)ncnc12` (racemic) [compound 10, 4-((4-(2-chloro-6-fluorophenyl)pyrrolidin-3-yl)amino)-quinazoline-8-carboxamide], the IC50 was 7 nM.
`CN1CC(Nc2ncnc3c(C(N)=O)cccc23)C(c2cccc(F)c2)C1` (racemic) [compound 12, 4-((4-(3-fluorophenyl)-1-methylpyrrolidin-3-yl)amino)quinazoline-8-carboxamide]: the IC50 was determined as 23 nM.
For `Cc1cc(C(N)=O)c2ncnc(NC3CNCC3c3ccccc3)c2c1` (racemic) [compound 15, 6-methyl-4-((4-phenylpyrrolidin-3-yl)amino)quinazoline-8-carboxamide], the IC50 came out at 349 nM.
Take `Cc1nc(NC2CNCC2c2ccccc2)c2cccc(C(N)=O)c2n1` (racemic) [compound 16, 2-methyl-4-((4-phenylpyrrolidin-3-yl)amino)quinazoline-8-carboxamide]: the IC50 was found to be 6 nM.
With `NC(=O)c1cccc2c(N[C@@H]3CNCC[C@H]3c3ccccc3)ncnc12` (racemic) [compound 27, 4-((4-phenylpiperidin-3-yl)amino)quinazoline-8-carboxamide], the IC50 is 6.3 nM.
On to `NC(=O)c1cccc2c(N[C@@H]3CNCC[C@H]3c3cccc(F)c3)ncnc12` (racemic) [compound 28, 4-((4-(3-fluorophenyl)piperidin-3-yl)amino)quinazoline-8-carboxamide], for which the IC50 was 1.8 nM.
Turning to `NC(=O)c1cccc2c(N[C@@H]3CNCC[C@H]3c3cccc(C(F)(F)F)c3)ncnc12` (racemic) [compound 30, 4-((4-(3-(trifluoromethyl)phenyl)piperidin-3-yl)amino)quinazoline-8-carboxamide], the IC50 amounted to 2.1 nM.
For the molecule `Cc1cccc([C@@H]2CCNC[C@H]2Nc2ncnc3c(C(N)=O)cccc23)c1` (racemic) [compound 31, 4-((4-(m-tolyl)piperidin-3-yl)amino)quinazoline-8-carboxamide], the IC50 was 3.1 nM.
Take `NC(=O)c1cccc2c(N[C@@H]3CNCC[C@H]3c3ccc(F)cc3)ncnc12` (racemic) [compound 32, 4-((4-(4-fluorophenyl)piperidin-3-yl)amino)quinazoline-8-carboxamide]: the IC50 came to 3.2 nM.
`Cc1ccc(C2CCN(C(=O)OCc3ccccc3)CC2Nc2ncnc3c(C(N)=O)cccc23)cc1F` (racemic) [compound 35, Benzyl 3-((8-carbamoylquinazolin-4-yl)amino)-4-(3-fluoro-4-methylphenyl)piperidine-1-carboxylate]: the IC50 worked out at 1000 nM.
Take `Cc1nc(N[C@@H]2CNCC[C@H]2c2cccc(F)c2)c2cccc(C(N)=O)c2n1` (racemic) [compound 37, 4-((4-(3-fluorophenyl)piperidin-3-yl)amino)-2-methylquinazoline-8-carboxamide]: the IC50 turned out to be 2.5 nM.
On to `CCc1nc(N[C@@H]2CNCC[C@H]2c2cccc(F)c2)c2cccc(C(N)=O)c2n1` (racemic) [compound 38, 2-ethyl-4-((4-(3-fluorophenyl)piperidin-3-yl)amino)quinazoline-8-carboxamide], for which the IC50 amounted to 1.7 nM.
Next, `CCc1nc(N[C@@H]2CNCC[C@H]2c2ccccc2)c2cccc(C(N)=O)c2n1` (racemic) [compound 39, 2-ethyl-4-((4-phenylpiperidin-3-yl)amino)quinazoline-8-carboxamide]: 4.8 nM.
Turning to `Cc1nc(N[C@@H]2CNCC[C@H]2c2ccccc2)c2cccc(C(N)=O)c2n1` (racemic) [compound 40, 2-methyl-4-((4-phenylpiperidin-3-yl)amino)quinazoline-8-carboxamide], the IC50 is 6.4 nM.
For `NC(=O)c1cccc2c(N[C@H]3CNC[C@@H]3c3cc(F)cc(C(F)(F)F)c3)ncnc12` (racemic) [compound 45], the IC50 is 1.9 nM.
For `NC(=O)c1cccc2c(N[C@H]3CNC[C@@H]3c3cccc(C(F)(F)F)c3)ncnc12` (racemic) [compound 48], the IC50 worked out at 1.7 nM.
Consider `NC(=O)c1cccc2c(N[C@H]3CNC[C@@H]3c3ccc(C(F)(F)F)cc3)ncnc12` (racemic) [compound 52], for which the IC50 amounted to 6.5 nM.
Turning to `NC(=O)c1cccc2c(N[C@@H]3CNC[C@@H]3c3cccc(OC(F)(F)F)c3)ncnc12` (racemic) [compound 55], the IC50 was 9 nM.
As to `NC(=O)c1cccc2c(N[C@H]3CNC[C@@H]3c3cccc(OC(F)(F)F)c3)ncnc12` (racemic) [compound 56], the IC50 is 2.4 nM.
For the molecule `NC(=O)c1cccc2c(N[C@H]3CNC[C@@H]3c3ccc(OC(F)(F)F)cc3)ncnc12` (racemic) [compound 59], the IC50 is 1.7 nM.
In the case of `NC(=O)c1cccc2c(N[C@H]3CNC[C@@H]3c3ccc4ncccc4c3)ncnc12` (racemic) [compound 69] it was 3.2 nM; in that of `Cc1cc([C@H]2CNC[C@@H]2Nc2ncnc3c(C(N)=O)cccc23)ccc1F` (racemic) [compound 74], 8.8 nM.
Next, `NC(=O)c1cccc2c(N[C@H]3CNC[C@@H]3c3cccc(Br)c3)ncnc12` (racemic) [compound 85]: 1.8 nM.
In the case of `N#Cc1cccc([C@@H]2CNC[C@@H]2Nc2ncnc3c(C(N)=O)cccc23)c1` (racemic) [compound 86] it was 14 nM.
Consider `NC(=O)c1cccc2c(N[C@H]3CNC[C@@H]3c3ccc4c(c3)CCO4)ncnc12` (racemic) [compound 89], for which the IC50 came out at 3.2 nM.
In the case of `Cc1c(F)cccc1[C@H]1CNC[C@@H]1Nc1ncnc2c(C(N)=O)cccc12` (racemic) [compound 92], the IC50 came to 2 nM.
As to `Cc1nc(N[C@H]2CNC[C@@H]2c2ccccc2Cl)c2cccc(C(N)=O)c2n1` (racemic) [compound 98], the IC50 was 2.7 nM.
Next, `NC(=O)c1cccc2c(N[C@H]3CNC[C@@H]3c3ccc(Cl)c(F)c3)ncnc12` (racemic) [compound 99]: 0.088 nM; `NC(=O)c1cccc2c(N[C@H]3CNC[C@@H]3c3ccc(F)c(Cl)c3)ncnc12` (racemic) [compound 100]: 1.4 nM.
Consider `COc1ccc([C@H]2CNC[C@@H]2Nc2ncnc3c(C(N)=O)cccc23)cc1F` (racemic) [compound 102], for which the IC50 is 2.9 nM.
As to `Cc1nc(N[C@H]2CNC[C@@H]2c2ccc(Cl)c(F)c2)c2cccc(C(N)=O)c2n1` (racemic) [compound 103], the IC50 came to 1.8 nM.
On to `NC(=O)c1cccc2c(N[C@H]3CNC[C@@H]3c3cc(F)c(F)cc3F)ncnc12` (racemic) [compound 105, 4-(((3R,4S)-4-(2,4,5-trifluorophenyl)pyrrolidin-3-yl)amino)quinazoline-8-carboxamide], for which the IC50 is 420 nM.
Next, `CCc1nc(N[C@@H]2CNC[C@H]2c2cccc(F)c2)c2cccc(C(N)=O)c2n1` (racemic) [compound 107]: 5.5 nM; `NC(=O)c1cccc2c(N[C@@H]3CNC[C@H]3c3cccc(Cl)c3F)ncnc12` (racemic) [compound 109]: 2.1 nM.
Take `NC(=O)c1cccc2c(N[C@H]3CNC[C@@H]3c3ccc4ccccc4c3)ncnc12` (racemic) [compound 110]: the IC50 turned out to be 1.54 nM.
Consider `CS(=O)(=O)c1ccc([C@H]2CNC[C@@H]2Nc2ncnc3c(C(N)=O)cccc23)cc1` (racemic) [compound 111], for which the IC50 was 7.5 nM.
As for `NC(=O)c1cccc2c(N[C@H]3CNC[C@@H]3c3cc(F)cc(Cl)c3)ncnc12` (racemic) [compound 114], the IC50 was 1.5 nM.
Turning to `NC(=O)c1cccc2c(N[C@H]3CNC[C@@H]3c3cccc(F)c3F)ncnc12` (racemic) [compound 116], the IC50 was 4.1 nM.
On to `NC(=O)c1cccc2c(N[C@H]3CNC[C@@H]3c3cccc(N4CCCC4)c3)ncnc12` (racemic) [compound 117, 4-(((3R,4S)-4-(3-(pyrrolidin-1-yl)phenyl)pyrrolidin-3-yl)amino)quinazoline-8-carboxamide], for which the IC50 is 5.9 nM.
`NC(=O)c1cccc2c(N[C@H]3CNC[C@@H]3c3ccc(F)c(-c4cccnc4)c3)ncnc12` (racemic) [compound 119]: the IC50 amounted to 15 nM.
Turning to `NC(=O)c1cccc2c(N[C@H]3CNC[C@@H]3c3ccc(-c4ccccc4)c(F)c3)ncnc12` (racemic) [compound 120], the IC50 was 1.4 nM.
Consider `NC(=O)c1cccc2c(N[C@H]3CNC[C@@H]3c3ccc(-c4cccnc4)c(F)c3)ncnc12` (racemic) [compound 121], for which the IC50 turned out to be 6 nM.
As for `NC(=O)c1cccc2c(N[C@@H]3CNCC[C@H]3c3cc(F)cc(F)c3)ncnc12` (racemic) [compound 123], the IC50 was found to be 2.3 nM.
`CN1CC[C@@H](c2ccccc2)[C@H](Nc2ncnc3c(C(N)=O)cccc23)C1` (racemic) [compound 124]: the IC50 was found to be 22 nM.
